Reference: ChEMBL document CHEMBL4033720, “Discovery of novel cyclic peptide inhibitors of dengue virus NS2B-NS3 protease with antiviral activity” (Bioorg Med Chem Lett, 2017)
Where a SMILES comes first, the peptide text is derived from it.

Legend:
[1] = Inhibition of dengue virus 2 NS2B-NS3 protease pre-incubated for 10 mins before Boc-Gly-Arg-Arg-peptidyl-4-methylcoumaryl-7-amide substrate addition and measured after 2 hrs by fluorescence based assay; parameters: species or system dengue virus type 2
dengue virus type 2 = assay: Antiviral activity against dengue virus 2 infected in BHK21 cells assessed as inhibition of virus-induced cytopathic effect after 4 days by resazurin dye based method; type: functional, cell-based
[2] = Stability assessed as dengue virus 2 NS2B-NS3 protease-mediated compound degradation at 200 uM in presence of […] incubated for 0 to 22.5 hrs by LC-MS method; type: ADME; conditions: dengue virus type 2, 200 µM
[3] = Toxicity in BHK21 cells assessed a reduction in cell viability after 4 days by resazurin dye based method; parameters: species or system Mesocricetus auratus, BHK-21; conditions: hamster
[4] = Selectivity index, ratio of CC50 for toxicity in BHK21 cells to EC50 for antiviral activity against dengue virus 2 infected in BHK21 cells; type: cell-based; conditions: hamster, read-out: Ratio CC50/EC50
[5] = Dengue virus, BHK-21, 96 h, read-out: EC50

| Structure (SMILES) | IC50 [1] [µM] | also measured |
| --- | --- | --- |
| N=C(N)NCCC[C@@H]1NC(=O)[C@H](CCCCN)NC(=O)[C@H]2CCCN2C(=O)[C@@H](Cc2ccccc2)NC(=O)[C@H](CO)NC(=O)[C@H](CCc2ccccc2)NC(=O)[C@H](CO)NC(=O)[C@H](CCCCN)NC1=O | 0.95 | EC50 (dengue virus type 2): Not Active; Stability [2]: Unstable |
| N=C(N)NCCC[C@@H]1NC(=O)[C@H](CCCNC(=N)N)NC(=O)[C@@H](CCCNC(=N)N)NC(=O)[C@@H](Cc2ccc3ccccc3c2)NC(=O)[C@H](Cc2ccccc2)NC(=O)[C@H](CCc2ccccc2)NC(=O)[C@@H](Cc2ccccc2)NC(=O)[C@H](CCCCN)NC1=O | 1.7 | EC50 (dengue virus type 2; [5]): 4.6 µM; CC50 at 96 h [3]: 86 µM |
| C[C@@H]1NC(=O)CNC(=O)[C@H](CO)NC(=O)[C@H](CCCCN)NC(=O)[C@H](CCCNC(=N)N)NC(=O)[C@H](CCCCN)NC(=O)CNC(=O)[C@H](C)NC1=O (HELM PEPTIDE1{A.A.G.K.R.K.S.G}$PEPTIDE1,PEPTIDE1,1:R1-8:R2$$$V2.0) | 57.4 |  |
| N=C(N)NCCC[C@@H]1NC(=O)[C@H](CCCNC(=N)N)NC(=O)[C@@H](CCCNC(=N)N)NC(=O)[C@@H](Cc2ccc3ccccc3c2)NC(=O)[C@H](Cc2ccccc2)NC(=O)[C@H](CCc2ccccc2)NC(=O)[C@@H](Cc2ccc3ccccc3c2)NC(=O)[C@H](CCCCN)NC1=O | 1.1 | EC50 (dengue virus type 2; [5]): 2 µM; CC50 at 96 h [3]: 24 µM; selectivity ratio [4]: > 10 |
| N=C(N)NCCC[C@@H]1NC(=O)[C@H](CCCCN)NC(=O)[C@H]2CCCN2C(=O)[C@@H](Cc2ccccc2)NC(=O)[C@H](CO)NC(=O)[C@H](Cc2ccc(-c3ccccc3)cc2)NC(=O)[C@H](CO)NC(=O)[C@H](CCCCN)NC1=O | 3.8 | EC50 (dengue virus type 2; [5]): 293 µM; CC50 at 96 h [3]: > 400 µM |
| C[C@@H]1NC(=O)[C@H](CS)NC(=O)CNC(=O)[C@H](CO)NC(=O)[C@H](CCCCN)NC(=O)[C@H](CCCNC(=N)N)NC(=O)[C@H](CCCCN)NC(=O)CNC1=O (HELM PEPTIDE1{A.G.K.R.K.S.G.C}$PEPTIDE1,PEPTIDE1,1:R1-8:R2$$$V2.0) | 114 |  |
| N=C(N)NCCC[C@@H]1NC(=O)[C@H](CCCNC(=N)N)NC(=O)[C@@H](CCCNC(=N)N)NC(=O)[C@@H](CCCNC(=N)N)NC(=O)[C@H](CO)NC(=O)[C@H](Cc2ccc(-c3ccccc3)cc2)NC(=O)[C@H](CO)NC(=O)[C@H](CCCCN)NC1=O | 2.3 | EC50 (dengue virus type 2; [5]): 141 µM; CC50 at 96 h [3]: > 400 µM |
| C[C@@H]1NC(=O)[C@H](CCc2ccccc2)NC(=O)[C@H](CO)NC(=O)[C@H](CCCCN)NC(=O)[C@H](CCCNC(=N)N)NC(=O)[C@H](CCCCN)NC(=O)CNC(=O)[C@@H](Cc2ccccc2)NC1=O | 7.6 |  |
| C[C@@H]1NC(=O)[C@H](CS)NC(=O)CNC(=O)[C@H](C)NC(=O)[C@H](CCCCN)NC(=O)[C@H](CCCNC(=N)N)NC(=O)[C@H](CCCCN)NC(=O)CNC1=O (HELM PEPTIDE1{A.G.C.A.G.K.R.K}$PEPTIDE1,PEPTIDE1,1:R1-8:R2$$$V2.0) | > 200 |  |
| C[C@@H]1NC(=O)[C@H](CS)NC(=O)[C@H](CCc2ccccc2)NC(=O)[C@H](CO)NC(=O)[C@H](CCCCN)NC(=O)[C@H](CCCNC(=N)N)NC(=O)[C@H](CCCCN)NC(=O)CNC1=O | 9.2 |  |
| C[C@@H]1NC(=O)[C@H](CS)NC(=O)[C@H](c2ccccc2)NC(=O)[C@H](CO)NC(=O)[C@H](CCCCN)NC(=O)[C@H](CCCNC(=N)N)NC(=O)[C@H](CCCCN)NC(=O)CNC1=O (HELM PEPTIDE1{A.G.K.R.K.S.[Phg].C}$PEPTIDE1,PEPTIDE1,1:R1-8:R2$$$V2.0) | 22.1 |  |
| N=C(N)NCCC[C@@H]1NC(=O)[C@H](CCCCN)NC(=O)[C@H]2CCCN2C(=O)[C@@H](Cc2ccccc2)NC(=O)[C@H](CO)NC(=O)[C@H](Cc2ccc3ccccc3c2)NC(=O)[C@H](CO)NC(=O)[C@H](CCCCN)NC1=O | 2.6 | EC50 (dengue virus type 2; [5]): 306 µM; CC50 at 96 h [3]: > 400 µM |
| N=C(N)NCCC[C@@H]1NC(=O)[C@H](CCCNC(=N)N)NC(=O)[C@@H](CCCNC(=N)N)NC(=O)[C@@H](Cc2ccccc2)NC(=O)[C@H](CO)NC(=O)[C@H](Cc2ccc(-c3ccccc3)cc2)NC(=O)[C@H](CO)NC(=O)[C@H](CCCCN)NC1=O | 3.7 | EC50 (dengue virus type 2; [5]): 87.5 µM; CC50 at 96 h [3]: > 400 µM |
| C[C@@H]1NC(=O)[C@H](CCc2ccccc2)NC(=O)[C@H](CO)NC(=O)[C@H](CCCCN)NC(=O)[C@H](CCCNC(=N)N)NC(=O)[C@H](CCCCN)NC(=O)CNC(=O)[C@H](CCc2ccccc2)NC1=O | 25.6 |  |
| C[C@@H]1NC(=O)[C@H](C)NC(=O)[C@H](CCc2ccccc2)NC(=O)[C@H](CO)NC(=O)[C@H](CCCCN)NC(=O)[C@H](CCCNC(=N)N)NC(=O)[C@H](CCCCN)NC(=O)CNC1=O (HELM PEPTIDE1{A.A.G.K.R.K.S.[O=C([C@H](CCc1ccccc1)N[*:1])[*:2]]}$PEPTIDE1,PEPTIDE1,1:R1-8:R2$$$V2.0) | 18.4 |  |
| C[C@@H]1NC(=O)CNC(=O)[C@H](C)NC(=O)[C@H](CS)NC(=O)CNC(=O)[C@H](CO)NC(=O)[C@H](CCCCN)NC(=O)[C@H](CCCNC(=N)N)NC1=O (HELM PEPTIDE1{A.G.A.R.K.S.G.C}$PEPTIDE1,PEPTIDE1,1:R1-8:R2$$$V2.0) | > 200 |  |
| C[C@@H]1NC(=O)[C@H](CCc2ccccc2)NC(=O)[C@H](CO)NC(=O)[C@H](CCCCN)NC(=O)[C@H](CCCNC(=N)N)NC(=O)[C@H](CCCCN)NC(=O)CNC(=O)[C@H](c2ccccc2)NC1=O | 22.2 |  |
| C[C@@H]1NC(=O)[C@H](CCc2ccccc2)NC(=O)[C@H](CO)NC(=O)[C@H](CCCCN)NC(=O)[C@H](CCCNC(=N)N)NC(=O)[C@H](CCCCN)NC(=O)CNC(=O)[C@@H](c2ccccc2)NC1=O | 15.1 |  |
| C[C@H]1NC(=O)[C@@H](Cc2ccccc2)NC(=O)[C@H](CO)NC(=O)[C@H](CCc2ccccc2)NC(=O)[C@H](CO)NC(=O)[C@H](CCCCN)NC(=O)[C@H](CCCNC(=N)N)NC(=O)[C@H](CCCCN)NC1=O | 3.3 |  |
| C[C@@H]1NC(=O)[C@H](CS)NC(=O)CNC(=O)[C@H](CO)NC(=O)[C@H](CCCCN)NC(=O)[C@H](C)NC(=O)[C@H](CCCCN)NC(=O)CNC1=O (HELM PEPTIDE1{A.G.K.A.K.S.G.C}$PEPTIDE1,PEPTIDE1,1:R1-8:R2$$$V2.0) | > 200 |  |
| C[C@@H]1NC(=O)[C@H](CS)NC(=O)CNC(=O)[C@H](CO)NC(=O)[C@H](C)NC(=O)[C@H](CCCNC(=N)N)NC(=O)[C@H](CCCCN)NC(=O)CNC1=O (HELM PEPTIDE1{A.G.K.R.A.S.G.C}$PEPTIDE1,PEPTIDE1,1:R1-8:R2$$$V2.0) | > 200 |  |
| N=C(N)NCCC[C@@H]1NC(=O)[C@H](CCCNC(=N)N)NC(=O)[C@@H](CCCNC(=N)N)NC(=O)[C@@H](Cc2ccccc2)NC(=O)[C@H](Cc2ccc3ccccc3c2)NC(=O)[C@H](CCc2ccccc2)NC(=O)[C@H](CO)NC(=O)[C@H](CCCCN)NC1=O | 1.5 | EC50 (dengue virus type 2; [5]): 48.5 µM; CC50 at 96 h [3]: 210 µM |
| N=C(N)NCCC[C@@H]1NC(=O)[C@H](CCCCN)NC(=O)[C@@H]2CCCN2C(=O)[C@@H](Cc2ccccc2)NC(=O)[C@H](CO)NC(=O)[C@H](CCc2ccccc2)NC(=O)[C@H](CO)NC(=O)[C@H](CCCCN)NC1=O | 52 |  |
| C[C@@H]1NC(=O)[C@@H](Cc2ccccc2)NC(=O)[C@H](CO)NC(=O)[C@H](CCc2ccccc2)NC(=O)[C@H](CO)NC(=O)[C@H](CCCCN)NC(=O)[C@H](CCCNC(=N)N)NC(=O)[C@H](CCCCN)NC1=O | 28.5 |  |
| C[C@@H]1NC(=O)[C@H](CS)NC(=O)[C@@H](CCc2ccccc2)NC(=O)[C@H](CO)NC(=O)[C@H](CCCCN)NC(=O)[C@H](CCCNC(=N)N)NC(=O)[C@H](CCCCN)NC(=O)CNC1=O | 38.7 |  |
| N=C(N)NCCC[C@@H]1NC(=O)[C@H](CCCCN)NC(=O)CNC(=O)[C@@H](Cc2ccccc2)NC(=O)[C@H](CO)NC(=O)[C@H](CCc2ccccc2)NC(=O)[C@H](CO)NC(=O)[C@H](CCCCN)NC1=O | 5 |  |
| N=C(N)NCCC[C@@H]1NC(=O)[C@H](CCCNC(=N)N)NC(=O)[C@H]2CCCN2C(=O)[C@@H](Cc2ccccc2)NC(=O)[C@H](CO)NC(=O)[C@H](Cc2ccc(-c3ccccc3)cc2)NC(=O)[C@H](CO)NC(=O)[C@H](CCCCN)NC1=O | 3.8 | EC50 (dengue virus type 2; [5]): 108 µM; CC50 at 96 h [3]: > 400 µM |
| C[C@@H]1NC(=O)[C@H](CCc2ccccc2)NC(=O)[C@H](CO)NC(=O)[C@H](CCCCN)NC(=O)[C@H](CCCNC(=N)N)NC(=O)[C@H](CCCCN)NC(=O)CNC(=O)[C@H](Cc2ccccc2)NC1=O | 19.8 |  |
| C[C@@H]1NC(=O)[C@H](CS)NC(=O)[C@H](Cc2ccccc2)NC(=O)[C@H](CO)NC(=O)[C@H](CCCCN)NC(=O)[C@H](CCCNC(=N)N)NC(=O)[C@H](CCCCN)NC(=O)CNC1=O (HELM PEPTIDE1{A.G.K.R.K.S.F.C}$PEPTIDE1,PEPTIDE1,1:R1-8:R2$$$V2.0) | 39.3 |  |
| C[C@@H]1NC(=O)[C@H](CCc2ccccc2)NC(=O)[C@H](CO)NC(=O)[C@H](CCCCN)NC(=O)[C@H](CCCNC(=N)N)NC(=O)[C@H](CCCCN)NC(=O)CNC(=O)[C@@H](CCc2ccccc2)NC1=O | 16.2 |  |
